≈ marks a conversion by molar mass, not a printed value. Read-outs that look alike come from different tables or passages of the source.
How the values were obtained:
Assay type in all cases: cell-based, Escherichia coli
[1] = tested on: EKO-35 (empty pCA24N); experiment: microbe, parasite or virus in culture; conditions: for MIC: EKO-35 empty pCA24N, 0.1 mM IPTG
[2] = tested on: EKO-35-Pore; experiment: Checkerboard synergy (FICI), porinated strain
How it was run: (§1)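 MHB II, CLSI microdilution checkerboard, colony-resuspension inoculum, solvent controls per plate. MIC = no growth at OD600. FICI summed from FIC of PAβN/NMP and antibiotic; <0.5 synergistic, >2.0 antagonistic.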

[3] = tested on: EKO-35 porinated strain expressing acrB; experiment: Checkerboard synergy (FICI), porinated strain; conditions: EKO-35 acrB Pore
How it was run: as §1

[4] = tested on: wild-type K-12-Pore; experiment: Checkerboard synergy (FICI), porinated strain; conditions: K-12 Pore
How it was run: as §1

[5] = tested on: EKO-35-Pore acrBD408A (functionally inactive AcrB variant); experiment: Checkerboard synergy (FICI), porinated strain; conditions: EKO-35 acrBD408A Pore
How it was run: as §1

[6] = tested on: EKO-35 araC::mexCD (MexCD from P. aeruginosa); experiment: MIC susceptibility profiling, efflux platform
How it was run: (§2)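 OD600 read-out, background-corrected, after 18 h at 37 °C with shaking. Compounds were tested in duplicate as 2-fold series in MHB II, with DMSO as solvent control. Inoculum was a 1/2000 dilution of an OD600 ~1.0 PBS suspension.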

[7] = tested on: EKO-35 araC::mdtEF; experiment: MIC susceptibility profiling, efflux platform
How it was run: as §2

[8] = tested on: EKO-35 araC::emrAB; experiment: MIC susceptibility profiling, efflux platform
How it was run: as §2

[9] = tested on: EKO-35 araC::acrB; experiment: MIC susceptibility profiling, efflux platform; conditions: EKO-35 araC::acrB compared to EKO-35
How it was run: as §2

[10] = tested on: EKO-35 araC::macAB; experiment: MIC susceptibility profiling, efflux platform
How it was run: as §2

[11] = tested on: EKO-35 araC::acrD; experiment: MIC susceptibility profiling, efflux platform
How it was run: as §2

[12] = tested on: EKO-35 araC::emrKY; experiment: MIC susceptibility profiling, efflux platform
How it was run: as §2

[13] = antibiotic alone (PAβN checkerboard)
[14] = antibiotic in combination with PAβN

CO[C@@H]1[C@@H](OC(N)=O)[C@@H](O)[C@H](Oc2ccc3c(O)c(NC(=O)c4ccc(O)c(CC=C(C)C)c4)c(=O)oc3c2C)OC1(C)C [novobiocin]
MIC ([1]; Chlor + (4 μg/mL chloramphenicol)): 3.13 µg/mL
MIC ([1]; Escherichia coli, Chlor −, read-out: MIC): 3.13 µg/mL (≈ 5.11 µM)
fold difference in susceptibility between EKO-35 and ΔtolC ([1]; while profiling the ASKA EKO-35 strains): 2 fold
Effect ([2]; EKO-35 Pore, PAβN + antibiotic): Additive
FICI ([2]; EKO-35 Pore, PAβN + antibiotic): 0.630
MICb Alone ([2]; EKO-35 Pore, antibiotic alone (PAβN checkerboard)): 1 µg/mL
MICb Combined ([2]; EKO-35 Pore, antibiotic in combination with PAβN): 0.13 µg/mL
interaction of PAβN in combination with the labelled antibiotic (FICI) ([2]; porinated efflux-deficient strains): no longer synergistic
Effect ([3]; PAβN + antibiotic): Synergistic
FICI ([3]; PAβN + antibiotic): 0.094
MICb Alone [3, 13]: 512 µg/mL
MICb Combined [3, 14]: 16 µg/mL
Effect ([4]; PAβN + antibiotic): Additive
FICI ([4]; PAβN + antibiotic): 0.508
MICb Alone [4, 13]: 16 µg/mL
MICb Combined [4, 14]: 8 µg/mL
Effect ([5]; PAβN + antibiotic): Additive
FICI ([5]; PAβN + antibiotic): 0.750
MICb Alone [5, 13]: 1 µg/mL
MICb Combined [5, 14]: 0.25 µg/mL
Fold change of MICs ([6]; EKO-35 araC::mexCD compared to EKO-35): 8 fold
MIC ([6]; Table 13B, non-porinated, technical duplicate, read-out: Minimum Inhibitory Concentration, EKO-35 araC::mexCD): 25 µg/mL
Fold change of MICs ([7]; EKO-35 araC::mdtEF compared to EKO-35): 16 fold
MIC ([7]; Escherichia coli, Table 13A, non-porinated, technical duplicate, read-out: Minimum Inhibitory Concentration, EKO-35 araC::mdtEF): 50 µg/mL
Fold change of MICs ([8]; EKO-35 araC::emrAB compared to EKO-35): 8 fold
MIC ([8]; Escherichia coli, Table 13B, non-porinated, technical duplicate, read-out: Minimum Inhibitory Concentration, EKO-35 araC::emrAB): 25 µg/mL
Fold change of MICs [9]: 128 fold
Fold change of MICs ([10]; EKO-35 araC::macAB compared to EKO-35): 1 fold
MIC ([10]; Escherichia coli, Table 13B, non-porinated, technical duplicate, read-out: Minimum Inhibitory Concentration, EKO-35 araC::macAB): 1.56 µg/mL
efflux pump-mediated resistance vs EKO-35 ([11]; AcrD): confirmed
Fold change of MICs ([11]; EKO-35 araC::acrD compared to EKO-35): 64 fold
MIC ([11]; Escherichia coli, Table 13A, non-porinated, technical duplicate, read-out: Minimum Inhibitory Concentration, EKO-35 araC::acrD): 200 µg/mL
Fold change of MICs ([12]; EKO-35 araC::emrKY compared to EKO-35): 1 fold
MIC ([12]; Escherichia coli, Table 13B, non-porinated, technical duplicate, read-out: Minimum Inhibitory Concentration, EKO-35 araC::emrKY): 3.12 µg/mL

Reference: patent US20230407243A1, “GENETIC PLATFORM TO INVESTIGATE THE FUNCTIONS OF BACTERIAL DRUG EFFLUX PUMPS” (priority 2022, published 2023)
